PubChem BioAssay (NCI)
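Five concentrations, 48 hours, 96-well plates. GI50 marks 50% less growth. The concentration for full growth arrest is given as TGI.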

Experiments:
Assay in all cases: NCI anticancer screen, dose series, 48 h
786-0 renal = system: 786-0 renal
A498 renal = system: A498 renal
A549 NSCLC = system: A549 NSCLC
ACHN renal = system: ACHN renal
BT-549 breast = system: BT-549 breast
CAKI-1 renal = system: CAKI-1 renal
CCRF-CEM leukemia = system: CCRF-CEM leukemia
COLO 205 colon = system: COLO 205 colon
DU-145 prostate = system: DU-145 prostate
EKVX NSCLC = system: EKVX NSCLC
HCC-2998 colon = system: HCC-2998 colon
HCT-116 colon = system: HCT-116 colon
HCT-15 colon = system: HCT-15 colon
HL-60(TB) leukemia = system: HL-60(TB) leukemia
HOP-62 NSCLC = system: HOP-62 NSCLC
HOP-92 NSCLC = system: HOP-92 NSCLC
HS 578T breast = system: HS 578T breast
HT29 colon = system: HT29 colon
IGROV1 ovarian = system: IGROV1 ovarian
K-562 leukemia = system: K-562 leukemia
KM12 colon = system: KM12 colon
LOX IMVI melanoma = system: LOX IMVI melanoma
M14 melanoma = system: M14 melanoma
MALME-3M melanoma = system: MALME-3M melanoma
MCF7 breast = system: MCF7 breast
MDA-MB-231 breast = system: MDA-MB-231 breast
MDA-MB-435 = system: MDA-MB-435
MOLT-4 leukemia = system: MOLT-4 leukemia
NCI-H226 lung = system: NCI-H226 lung
NCI-H23 lung = system: NCI-H23 lung
NCI-H460 lung = system: NCI-H460 lung
NCI-H522 lung = system: NCI-H522 lung
NCI/ADR-RES ovarian = system: NCI/ADR-RES ovarian
OVCAR-3 ovarian = system: OVCAR-3 ovarian
OVCAR-4 ovarian = system: OVCAR-4 ovarian
OVCAR-5 ovarian = system: OVCAR-5 ovarian
OVCAR-8 ovarian = system: OVCAR-8 ovarian
PC-3 prostate = system: PC-3 prostate
RPMI-8226 leukemia = system: RPMI-8226 leukemia
RXF 393 renal = system: RXF 393 renal
SF-268 CNS = system: SF-268 CNS
SF-295 CNS = system: SF-295 CNS
SF-539 CNS = system: SF-539 CNS
SK-MEL-2 melanoma = system: SK-MEL-2 melanoma
SK-MEL-28 melanoma = system: SK-MEL-28 melanoma
SK-MEL-5 melanoma = system: SK-MEL-5 melanoma
SK-OV-3 ovarian = system: SK-OV-3 ovarian
SN12C renal = system: SN12C renal
SNB-19 CNS = system: SNB-19 CNS
SNB-75 CNS = system: SNB-75 CNS
SW-620 colon = system: SW-620 colon
T-47D breast = system: T-47D breast
TK-10 renal = system: TK-10 renal
U251 CNS = system: U251 CNS
UACC-257 melanoma = system: UACC-257 melanoma
UACC-62 melanoma = system: UACC-62 melanoma
UO-31 renal = system: UO-31 renal

## CCn1c2ccccc2c2cc(/C=C(/C#N)C(N)=S)ccc21
786-0 renal
  GI50: 16.1 µM
  TGI: 39.4 µM
A498 renal
  GI50: 0.026 µM
  TGI: 0.115 µM
A549 NSCLC
  GI50: 17.5 µM
  TGI: > 87.4 µM
ACHN renal
  GI50: 19.6 µM
  TGI: 64 µM
BT-549 breast
  GI50: 18.6 µM
  TGI: 36.6 µM
CAKI-1 renal
  GI50: 1.12 µM
  TGI: > 35.4 µM
CCRF-CEM leukemia
  GI50: 23.4 µM
  TGI: > 100 µM
COLO 205 colon
  GI50: 13.2 µM
  TGI: > 45.7 µM
DU-145 prostate
  GI50: 16.1 µM
  TGI: 63.6 µM
EKVX NSCLC
  GI50: 17.7 µM
  TGI: > 58.4 µM
HCC-2998 colon
  GI50: 2.88 µM
  TGI: 9 µM
HCT-116 colon
  GI50: 5.79 µM
  TGI: 20.9 µM
HCT-15 colon
  GI50: 18.7 µM
  TGI: 51.6 µM
HL-60(TB) leukemia
  GI50: 74.4 µM
  TGI: > 100 µM
HOP-62 NSCLC
  GI50: 1.21 µM
  TGI: 17.7 µM
HOP-92 NSCLC
  GI50: 14.6 µM
  TGI: 46.9 µM
HS 578T breast
  GI50: 2.21 µM
  TGI: 9.29 µM
HT29 colon
  GI50: 10.9 µM
  TGI: > 42.7 µM
IGROV1 ovarian
  GI50: 0.619 µM
  TGI: 23.2 µM
K-562 leukemia
  GI50: 12.8 µM
  TGI: > 100 µM
KM12 colon
  GI50: 15.2 µM
  TGI: 38.5 µM
LOX IMVI melanoma
  GI50: 13 µM
  TGI: 26.1 µM
M14 melanoma
  GI50: 18.2 µM
  TGI: 38.8 µM
MALME-3M melanoma
  GI50: 6.19 µM
  TGI: 48.5 µM
MCF7 breast
  GI50: 0.271 µM
  TGI: 17.8 µM
MDA-MB-231 breast
  GI50: 12.1 µM
  TGI: 30.8 µM
MDA-MB-435
  GI50: 6.06 µM
  TGI: 29.6 µM
MOLT-4 leukemia
  GI50: 12.5 µM
  TGI: 58.6 µM
NCI-H226 lung
  TGI: 0.0236 µM
NCI-H23 lung
  GI50: 14.8 µM
  TGI: 35.4 µM
NCI-H460 lung
  GI50: 0.443 µM
  TGI: 12.2 µM
NCI-H522 lung
  GI50: 26.9 µM
  TGI: > 68.4 µM
NCI/ADR-RES ovarian
  GI50: 18 µM
  TGI: 38.5 µM
OVCAR-3 ovarian
  GI50: 1.73 µM
  TGI: 18.2 µM
OVCAR-4 ovarian
  GI50: 1.43 µM
  TGI: 9.92 µM
OVCAR-5 ovarian
  GI50: 0.0581 µM
  TGI: 0.57 µM
OVCAR-8 ovarian
  GI50: 20.5 µM
  TGI: 56.4 µM
PC-3 prostate
  GI50: 18.3 µM
  TGI: > 59.4 µM
RPMI-8226 leukemia
  GI50: 35.4 µM
  TGI: > 100 µM
RXF 393 renal
  GI50: 16.5 µM
  TGI: 39 µM
SF-268 CNS
  GI50: 16.3 µM
  TGI: 40.6 µM
SF-295 CNS
  GI50: 4.64 µM
  TGI: 24.2 µM
SF-539 CNS
  GI50: 14.2 µM
  TGI: 27.4 µM
SK-MEL-2 melanoma
  GI50: 31.3 µM
  TGI: > 100 µM
SK-MEL-28 melanoma
  GI50: 17.7 µM
  TGI: 47.2 µM
SK-MEL-5 melanoma
  GI50: 7.26 µM
  TGI: 20.2 µM
SK-OV-3 ovarian
  GI50: 36.7 µM
  TGI: > 62.1 µM
SN12C renal
  GI50: 11.8 µM
  TGI: 29.9 µM
SNB-19 CNS
  GI50: 35.2 µM
  TGI: > 75.6 µM
SNB-75 CNS
  GI50: 18.8 µM
  TGI: 46.1 µM
SW-620 colon
  GI50: 9.06 µM
  TGI: 25.1 µM
T-47D breast
  GI50: 4.84 µM
TK-10 renal
  GI50: 0.216 µM
  TGI: 1.82 µM
U251 CNS
  GI50: 4.85 µM
  TGI: 23.5 µM
UACC-257 melanoma
  GI50: 3.11 µM
  TGI: > 21.4 µM
UACC-62 melanoma
  GI50: 0.219 µM
  TGI: 1.51 µM
UO-31 renal
  GI50: 20.4 µM
  TGI: > 60.6 µM
